# Test results as given in PubChem BioAssay AID2060906 (Molecular Pharmacology Branch, DTP, NCI, 2025).
# System: 485176-168-R4-J1-PDC complex spheroid growth
# Experiment: Anticancer human tumor 485176-168-R4-J1-PDC patient-derived pancreatic adenocarcinoma cell line growth inhibition [RAS]
# Details: for IC50: curve of first compound; for viability, T/C: stronger effect = lower value
# Outline: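 Tumour cells grown as complex spheroids with HUVEC endothelial cells and mesenchymal stem cells, treated with RAS pathway inhibitor combinations. Each agent spans half-log steps from near clinical Cmax, or 10 microM where Cmax is unknown.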
# 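Further: spheroids exposed to compounds for seven days before readout.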
# 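Wherever viability, T/C is given: luminescence viability expressed relative to DMSO vehicle wells set as 100%.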
smiles,measurement,setting,value
CC1(O)CCCC1n1c(=O)c(C(F)F)cc2cnc(NC3CCN(S(C)(=O)=O)CC3)nc21 (configuration not stated) + C=CC(=O)N1CCN(c2nc(OCC3CCCN3C)nc3c(F)c(-c4nc(N)cc(C)c4C(F)(F)F)c(Cl)cc23)C(C)C1,IC50,second compound 0.00316 µM,1970 nM
same,IC50,second compound 0.01 µM,2340 nM
same,IC50,second compound 0.0316 µM,2090 nM
same,IC50,second compound 0.1 µM,2220 nM
same,IC50,second compound 0.316 µM,3650 nM
same,IC50,second compound 1 µM,1810 nM
same,"viability, T/C","second compound 0.00316 µM, first compound 0.0316 µM",97%
same,"viability, T/C","second compound 0.00316 µM, first compound 0.1 µM",77.5%
same,"viability, T/C","second compound 0.00316 µM, first compound 0.316 µM",59%
same,"viability, T/C","second compound 0.00316 µM, first compound 1 µM",60.3%
same,"viability, T/C","second compound 0.00316 µM, first compound 3.16 µM",55.9%
same,"viability, T/C","second compound 0.00316 µM, first compound 10 µM",4.16%
same,"viability, T/C","second compound 0.01 µM, first compound 0.0316 µM",80.2%
same,"viability, T/C","second compound 0.01 µM, first compound 0.1 µM",61.8%
same,"viability, T/C","second compound 0.01 µM, first compound 0.316 µM",66.7%
same,"viability, T/C","second compound 0.01 µM, first compound 1 µM",67.7%
same,"viability, T/C","second compound 0.01 µM, first compound 3.16 µM",43.9%
same,"viability, T/C","second compound 0.01 µM, first compound 10 µM",2.59%
same,"viability, T/C","second compound 0.0316 µM, first compound 0.0316 µM",91.2%
same,"viability, T/C","second compound 0.0316 µM, first compound 0.1 µM",81.6%
same,"viability, T/C","second compound 0.0316 µM, first compound 0.316 µM",70.2%
same,"viability, T/C","second compound 0.0316 µM, first compound 1 µM",58%
same,"viability, T/C","second compound 0.0316 µM, first compound 3.16 µM",51.5%
same,"viability, T/C","second compound 0.0316 µM, first compound 10 µM",2.26%
same,"viability, T/C","second compound 0.1 µM, first compound 0.0316 µM",91.8%
same,"viability, T/C","second compound 0.1 µM, first compound 0.1 µM",74.5%
same,"viability, T/C","second compound 0.1 µM, first compound 0.316 µM",68.9%
same,"viability, T/C","second compound 0.1 µM, first compound 1 µM",68.7%
same,"viability, T/C","second compound 0.1 µM, first compound 3.16 µM",45%
same,"viability, T/C","second compound 0.1 µM, first compound 10 µM",3.32%
same,"viability, T/C","second compound 0.316 µM, first compound 0.0316 µM",103%
same,"viability, T/C","second compound 0.316 µM, first compound 0.1 µM",62.5%
same,"viability, T/C","second compound 0.316 µM, first compound 0.316 µM",73.4%
same,"viability, T/C","second compound 0.316 µM, first compound 1 µM",68.1%
same,"viability, T/C","second compound 0.316 µM, first compound 3.16 µM",62%
same,"viability, T/C","second compound 0.316 µM, first compound 10 µM",3.67%
same,"viability, T/C","second compound 1 µM, first compound 0.0316 µM",104%
same,"viability, T/C","second compound 1 µM, first compound 0.1 µM",86.8%
same,"viability, T/C","second compound 1 µM, first compound 0.316 µM",69.4%
same,"viability, T/C","second compound 1 µM, first compound 1 µM",49.1%
same,"viability, T/C","second compound 1 µM, first compound 3.16 µM",62.6%
same,"viability, T/C","second compound 1 µM, first compound 10 µM",2.11%
